Laboratory results as given in ChEMBL document CHEMBL3045943, “Novel N-aryl(alkaryl)-2-[(3-R-2-oxo-2H-[1,2,4]triazino[2,3-c]quinazoline-6-yl)thio]acetamides: synthesis, cytotoxicity, anticancer activity, COMPARE analysis and docking” (2013).

What was measured:
Format in all cases: functional
[1] = system: MCF7; experiment: Cytotoxicity against Homo sapiens (human) MCF7 cells assessed as cell growth at 10 uM after 48 hr by SRB assay relative to control; settings: MCF7, 48 h, read-out: Activity
[2] = system: Photobacterium leiognathi; experiment: Growth inhibition of Photobacterium leiognathi Sh1 assessed as bio-luminescence at 0.025 mg/ml after 10 min by acute action test relative to control; design: scale not given: the % may be the effect or the level left
[3] = system: SF-539; experiment: Cytotoxicity against Homo sapiens (human) SF539 cells assessed as cell growth at 10 uM after 48 hr by SRB assay relative to control; settings: SF-539, 48 h, read-out: Activity
[4] = system: TK-10; experiment: Cytotoxicity against Homo sapiens (human) TK10 cells assessed as cell growth at 10 uM after 48 hr by SRB assay relative to control; settings: TK-10, 48 h, read-out: Activity
[5] = system: Photobacterium leiognathi; experiment: Growth inhibition of Photobacterium leiognathi Sh1 assessed as bio-luminescence at 0.1 mg/ml after 10 min by acute action test relative to control; design: scale not given: the % may be the effect or the level left
[6] = system: Photobacterium leiognathi; experiment: Growth inhibition of Photobacterium leiognathi Sh1 assessed as bio-luminescence at 0.25 mg/ml after 10 min by acute action test relative to control; design: scale not given: the % may be the effect or the level left
[7] = system: MDA-MB-435; experiment: Cytotoxicity against Homo sapiens (human) MDA-MB-435 cells assessed as cell growth at 10 uM after 48 hr by SRB assay relative to control; settings: MDA-MB-435, 48 h, read-out: Activity
[8] = system: A498; experiment: Cytotoxicity against Homo sapiens (human) A498 cells after 48 hr by SRB assay; settings: A498, 48 h; for TGI: read-out: pTGI (converted)
[9] = system: A549; experiment: Cytotoxicity against Homo sapiens (human) A549 cells assessed as cell growth at 10 uM after 48 hr by SRB assay relative to control; settings: A549, 48 h, read-out: Activity
[10] = system: NCI-H522; experiment: Cytotoxicity against Homo sapiens (human) NCI-H522 cells assessed as cell growth at 10 uM after 48 hr by SRB assay relative to control; settings: NCI-H522, 48 h, read-out: Activity
[11] = system: 786-0; experiment: Cytotoxicity against Homo sapiens (human) 786-0 cells assessed as cell growth at 10 uM after 48 hr by SRB assay relative to control; settings: 786-0, 48 h, read-out: Activity
[12] = Cytotoxicity against Homo sapiens (human) NCI-ADR-RES cells assessed as cell growth at 10 uM after 48 hr by SRB assay relative to control; settings: read-out: Activity
[13] = system: SK-MEL-5; experiment: Cytotoxicity against Homo sapiens (human) SK-MEL-5 cells assessed as cell growth at 10 uM after 48 hr by SRB assay relative to control; settings: SK-MEL-5, 48 h, read-out: Activity
[14] = system: OVCAR-4; experiment: Cytotoxicity against Homo sapiens (human) OVCAR4 cells assessed as cell growth at 10 uM after 48 hr by SRB assay relative to control; settings: OVCAR-4, 48 h, read-out: Activity
[15] = system: UACC-62; experiment: Cytotoxicity against Homo sapiens (human) UACC62 cells assessed as cell growth at 10 uM after 48 hr by SRB assay relative to control; settings: UACC-62, 48 h, read-out: Activity
[16] = system: HOP-62; experiment: Cytotoxicity against Homo sapiens (human) HOP62 cells after 48 hr by SRB assay; settings: HOP-62, 48 h; for TGI: read-out: pTGI (converted)
[17] = system: MDA-MB-231; experiment: Cytotoxicity against Homo sapiens (human) MDA-MB-231 cells after 48 hr by SRB assay; settings: MDA-MB-231, 48 h
[18] = system: SNB-75; experiment: Cytotoxicity against Homo sapiens (human) SNB75 cells after 48 hr by SRB assay; settings: SNB-75, 48 h
[19] = system: OVCAR-8; experiment: Cytotoxicity against Homo sapiens (human) OVCAR8 cells assessed as cell growth at 10 uM after 48 hr by SRB assay relative to control; settings: OVCAR-8, 48 h, read-out: Activity
[20] = system: RXF 393; experiment: Cytotoxicity against Homo sapiens (human) RXF393 cells assessed as cell growth at 10 uM after 48 hr by SRB assay relative to control; settings: RXF 393, 48 h, read-out: Activity
[21] = system: SW-620; experiment: Cytotoxicity against Homo sapiens (human) SW620 cells assessed as cell growth at 10 uM after 48 hr by SRB assay relative to control; settings: SW-620, 48 h, read-out: Activity
[22] = system: U-251; experiment: Cytotoxicity against Homo sapiens (human) U251 cells after 48 hr by SRB assay; settings: U-251, 48 h
[23] = system: LOX IMVI; experiment: Cytotoxicity against Homo sapiens (human) LOXIMVI cells assessed as cell growth at 10 uM after 48 hr by SRB assay relative to control; settings: read-out: Activity
[24] = system: SNB-75; experiment: Cytotoxicity against Homo sapiens (human) SNB75 cells assessed as cell growth at 10 uM after 48 hr by SRB assay relative to control; settings: SNB-75, 48 h, read-out: Activity
[25] = system: NCI-H460; experiment: Cytotoxicity against Homo sapiens (human) NCI-H460 cells assessed as cell growth at 10 uM after 48 hr by SRB assay relative to control; settings: NCI-H460, 48 h, read-out: Activity
[26] = system: Photobacterium leiognathi; experiment: Growth inhibition of Photobacterium leiognathi Sh1 assessed as bio-luminescence at 0.25 mg/ml after 16 to 18 hr by chronic action test relative to control; design: scale not given: the % may be the effect or the level left
[27] = system: Photobacterium leiognathi; experiment: Growth inhibition of Photobacterium leiognathi Sh1 assessed as bio-luminescence at 0.1 mg/ml after 16 to 18 hr by chronic action test relative to control; design: scale not given: the % may be the effect or the level left
[28] = system: SK-MEL-2; experiment: Cytotoxicity against Homo sapiens (human) SK-MEL-2 cells assessed as cell growth at 10 uM after 48 hr by SRB assay relative to control; settings: SK-MEL-2, 48 h, read-out: Activity
[29] = system: HCT-116; experiment: Cytotoxicity against Homo sapiens (human) HCT116 cells assessed as cell growth at 10 uM after 48 hr by SRB assay relative to control; settings: HCT-116, 48 h, read-out: Activity
[30] = system: MDA-MB-231; experiment: Cytotoxicity against Homo sapiens (human) MDA-MB-231 cells assessed as cell growth at 10 uM after 48 hr by SRB assay relative to control; settings: MDA-MB-231, 48 h, read-out: Activity
[31] = system: OVCAR-3; experiment: Cytotoxicity against Homo sapiens (human) OVCAR3 cells assessed as cell growth at 10 uM after 48 hr by SRB assay relative to control; settings: OVCAR-3, 48 h, read-out: Activity
[32] = system: DU-145; experiment: Cytotoxicity against Homo sapiens (human) DU145 cells assessed as cell growth at 10 uM after 48 hr by SRB assay relative to control; settings: DU-145, 48 h, read-out: Activity
[33] = system: Photobacterium leiognathi; experiment: Growth inhibition of Photobacterium leiognathi Sh1 assessed as bio-luminescence at 0.025 mg/ml after 16 to 18 hr by chronic action test relative to control; design: scale not given: the % may be the effect or the level left
[34] = system: U-251; experiment: Cytotoxicity against Homo sapiens (human) U251 cells assessed as cell growth at 10 uM after 48 hr by SRB assay relative to control; settings: U-251, 48 h, read-out: Activity
[35] = system: SK-MEL-5; experiment: Cytotoxicity against Homo sapiens (human) SK-MEL-5 cells after 48 hr by SRB assay; settings: SK-MEL-5, 48 h
[36] = system: SF-268; experiment: Cytotoxicity against Homo sapiens (human) SF268 cells assessed as cell growth at 10 uM after 48 hr by SRB assay relative to control; settings: SF-268, 48 h, read-out: Activity
[37] = system: KM12; experiment: Cytotoxicity against Homo sapiens (human) KM12 cells assessed as cell growth at 10 uM after 48 hr by SRB assay relative to control; settings: KM12, 48 h, read-out: Activity
[38] = system: ACHN; experiment: Cytotoxicity against Homo sapiens (human) ACHN cells assessed as cell growth at 10 uM after 48 hr by SRB assay relative to control; settings: read-out: Activity
[39] = system: HT-29; experiment: Cytotoxicity against Homo sapiens (human) HT-29 cells assessed as cell growth at 10 uM after 48 hr by SRB assay relative to control; settings: HT-29, 48 h, read-out: Activity
[40] = system: UO-31; experiment: Cytotoxicity against Homo sapiens (human) UO31 cells assessed as cell growth at 10 uM after 48 hr by SRB assay relative to control; settings: UO-31, 48 h, read-out: Activity
[41] = system: CAKI-1; experiment: Cytotoxicity against Homo sapiens (human) Caki1 cells assessed as cell growth at 10 uM after 48 hr by SRB assay relative to control; settings: CAKI-1, 48 h, read-out: Activity
[42] = system: A498; experiment: Cytotoxicity against Homo sapiens (human) A498 cells assessed as cell growth at 10 uM after 48 hr by SRB assay relative to control; settings: A498, 48 h, read-out: Activity
[43] = system: NCI-H460; experiment: Cytotoxicity against Homo sapiens (human) NCI-H460 cells after 48 hr by SRB assay; settings: NCI-H460, 48 h
[44] = system: COLO 205; experiment: Cytotoxicity against Homo sapiens (human) COLO205 cells assessed as cell growth at 10 uM after 48 hr by SRB assay relative to control; settings: COLO 205, 48 h, read-out: Activity
[45] = system: NCI-H522; experiment: Cytotoxicity against Homo sapiens (human) NCI-H522 cells after 48 hr by SRB assay; settings: NCI-H522, 48 h
[46] = system: BT-549; experiment: Cytotoxicity against Homo sapiens (human) BT549 cells assessed as cell growth at 10 uM after 48 hr by SRB assay relative to control; settings: BT-549, 48 h, read-out: Activity
[47] = read-out: pLC50 (the source's name) (converted)

O=C(CSc1nc2ccccc2c2nc(=O)c(-c3ccccc3)nn12)NCc1ccccc1F
growth at 10 µM [1]: 38.2%
Activity [2]: 118.8%
growth at 10 µM [3]: 20.9%
growth at 10 µM [4]: 46.3%
Activity [5]: 125%
Activity [6]: 100%
growth at 10 µM [7]: 49.6%
GI50 [8]: 1.29 µM
LC50 [8]: > 100 µM
TGI [8]: > 100 µM
growth at 10 µM [9]: 26%
growth at 10 µM [10]: 34.5%
growth at 10 µM [11]: 16.5%
growth at 10 µM [12]: 38.8%
growth at 10 µM [13]: 47.3%
growth at 10 µM [14]: -39.5%
growth at 10 µM [15]: 41.2%
GI50 [16]: 2.82 µM
LC50 [16]: > 100 µM
TGI [16]: > 100 µM
GI50 [17]: 2.69 µM
CC50 [17, 47]: > 100 µM
TGI ([17]; read-out: pTGI): > 100 µM
GI50 [18]: 1.82 µM
LC50 [18]: > 100 µM
TGI ([18]; read-out: pTGI (converted)): > 100 µM
growth at 10 µM [19]: 36.2%
growth at 10 µM [20]: 42.3%
growth at 10 µM [21]: 31%
GI50 [22]: 2.69 µM
LC50 [22]: > 100 µM
TGI ([22]; read-out: pTGI (converted)): > 100 µM
growth at 10 µM [23]: 50.5%
growth at 10 µM [24]: 15.8%
growth at 10 µM [25]: 5.5%
Activity [26]: 54.5%
Activity [27]: 75%
growth at 10 µM [28]: 50.3%
growth at 10 µM [29]: 34.5%
growth at 10 µM [30]: 48.9%
growth at 10 µM [31]: 9.5%
growth at 10 µM [32]: 35.9%
Activity [33]: 90.6%
growth at 10 µM [34]: 2.29%

O=C(CSc1nc2ccccc2c2nc(=O)c(-c3ccccc3)nn12)NCc1ccc(F)cc1
Activity [2]: 77.8%
growth at 10 µM [3]: 30.8%
Activity [5]: 78.8%
Activity [6]: 91.7%
GI50 [8]: 1.12 µM
LC50 [8]: > 100 µM
TGI [8]: 34.7 µM
GI50 [35]: 3.02 µM
LC50 [35]: > 100 µM
TGI ([35]; read-out: pTGI): > 100 µM
growth at 10 µM [13]: 17.9%
GI50 [16]: 1.74 µM
LC50 [16]: > 100 µM
TGI [16]: 6.92 µM
growth at 10 µM [36]: 51.2%
growth at 10 µM [37]: 9.97%
growth at 10 µM [21]: 45.7%
growth at 10 µM [38]: 43.7%
growth at 10 µM [24]: 44.3%
growth at 10 µM [25]: -25.4%
growth at 10 µM [39]: 30.9%
Activity [26]: 166.7%
Activity [27]: 76.9%
growth at 10 µM [40]: 12.7%
growth at 10 µM [29]: 38.9%
growth at 10 µM [30]: 15.7%
growth at 10 µM [41]: -5.36%
growth at 10 µM [42]: 24.8%
GI50 [43]: 2.57 µM
CC50 [43, 47]: > 100 µM
TGI ([43]; read-out: pTGI): > 100 µM
Activity [33]: 90.9%
growth at 10 µM [44]: 30.8%
GI50 [45]: 2.51 µM
CC50 [45, 47]: > 100 µM
TGI ([45]; read-out: pTGI (converted)): 31.6 µM
growth at 10 µM [46]: 45.9%
growth at 10 µM [34]: 19.9%
